Like-named read-outs stand apart in the source and are kept apart here.
Legend:
[1] = test system: healthy, adult cats; assay: Tolerability and safety in healthy adult cats, daily oral dosing (Example 3); type: in vivo, cat; settings: once daily oral
Description: (§1) Twenty-two adult cats were randomized to three treatment groups and one control group with 5 and 6 cats/group respectively (3 (2) male/3 female). After a baseline phase of two weeks the cats were orally treated in fasted condition once daily. […] The oily suspensions were in accordance with the oily suspension described in Example 1.
Treatments had no impact on the cats' body weight. None of the findings observed during the physical examinations or general health observations were rated as having a negative impact on the outcome of the study. The most frequently observed findings were vomiting of small amounts of fluid.

[2] = test system: Erythropoietin (EPO); assay: EPO plasma concentrations in healthy adult cats, daily oral dosing; type: in vivo, cat; settings: 6 hours post treatment, all study days measured
Description: (§2) This study evaluated the effects of molidustat on red blood cell parameters in healthy, adult cats, if administered daily via the oral route at different dosages and using different formulations of molidustat sodium. The hematocrit, erythropoietin (EPO) and molidustat plasma concentrations during the treatment phase were examined, with hematocrit representing the main outcome parameter.
as §1
(§3) For evaluation of the hematological parameters blood samples were taken at regular intervals before, during and after the treatment phase. Additionally, plasma samples were collected at study day (SD) 0, SD 7 and SD 23 before and after treatment and analyzed for their concentration of EPO and molidustat.

[3] = test system: healthy, adult cats; assay: Pharmacodynamic effects on hematocrit in healthy adult cats, daily oral dosing; type: in vivo, cat
Description: as §2, §1
To keep the application volume per kg bodyweight (BW) consistent for each animal the oily suspension of molidustat was available at two different concentrations (5% and 10%), so that each cat was treated with 0.1 mL/kg BW of the respective formulation.
as §3

[4] = test system: cats; assay: Clinical tolerance after two oral treatments (Example 2); type: in vivo; settings: two oral treatments at 3.0 mg/kg in cats
Method: (§4) The animals were treated in a fasted prandial state with the test item at a single oral dose rate of 3.0 mg/kg. After a wash out period of 14 days the animals were treated with the test item at the same dose rate and same administration route, but in a fed prandial state. Frequent blood samplings at fixed intervals were performed over a period of 48 hours after each treatment.
(§5) Peak and extent of plasma exposure of molidustat was higher if administered orally as sodium salt to cats at fasted prandial state compared to fed prandial state. Metabolized molidustat amounted to approximately 60% in total exposure independent of prandial state.

[5] = test system: cats with anemia associated with CKD; assay: Field study, in-use safety in cats with anemia associated with CKD
Method: This study was conducted using a single protocol in the United States (US, n=23 clinics) and Europe (EU, n=11 clinics) over a 10 month period. On study day (SD) −7 (±2 days), blood was collected for serum chemistry and hematology from cats that qualified for enrollment. After meeting enrollment criteria, cats were orally treated once daily for at least 28 consecutive days (SD 0 to SD 27) with either the control product (CP [vehicle]) or molidustat. The molidustat was administered orally at a dose of 5 mg/kg body weight (bw) (0.2 mL/kg bw). Blood was collected to assess hematological parameters on SDs 0, 7, 14, 21 and 28 (±2 days for all time points except SD 0). Blood was also collected for evaluating serum chemistry on SD 28 (±2 days), except creatinine. Hematocrit (HCT) and packed cell volumes (PCV, performed at each clinic) were the primary hematological parameters of interest. Individual animal treatment success was evaluated up to and including SD 28±2 using three different criteria, as well as using only the data on SD 28.

[6] = Plasma pharmacokinetic study after single oral administration to fasted and fed cats; type: in vivo, cat; settings: for AUC / AUC(0-t) / Cmax / Tmax: female, European Shorthaired, plasma, po, 3 mg/kg; for AUC / AUC(0-t) / Cmax / Tmax / Clb / MRTint / Vz / t1//2: 3.0 mg molidustat sodium per kg; for AUC / AUC(0-t) / Cmax / Clb / MRTint / Vz / t1//2: geometric mean; for Tmax: median
Method: (§6) Four adult, healthy, female European Shorthaired cats were selected for the study. On the day prior to treatment feed was withdrawn to ensure a fasted prandial state for the oral treatment.
The pharmacokinetic profile of the HIF-PHI was determined in plasma of 3 adult, female, healthy European Shorthaired cats with a mean body weight of 3.5 kg (StD=0.41 kg). One animal was removed from the study due to difficult handling of the animal.
as §4
The plasma samples were analyzed with regard to their concentrations of molidustat and its metabolite by HPLC using a tandem mass spectrometric detector (AB Sciex API 4000).
From the individual plasma concentration-time-profiles obtained pharmacokinetics (PK) were derived using non-compartmental analyses.

[7] = Plasma pharmacokinetics, oral bioavailability and dose proportionality after single oral dose; type: in vivo, cat; settings: both sexes, geometric mean (CV)
Method: (§7) The test item was applied as single oral dose at the expected target dose rate of 5 mg molidustat sodium per kg bw, at 2.5 mg/kg and at 10 mg/kg to healthy adult cats. A single intravenous bolus dose of 5.0 mg/kg was applied for comparison using a suitable reference item (molidustat sodium aqueous solution 2.0% (m/v)).
(§8) Following a mixed serial/cross-over design, 16 healthy, adult cats (8 neutered males, 8 spayed females) were included in the study and allocated to […]. The animals were between 13.7 and 14.7 months old and weighed between 3.3 and 6.0 kg at start of the in-life phase.
(§9) The dose rates administered were at means of 2.42 mg/kg, 4.79, and 9.54 mg molidustat sodium per kg for the 0.5×, 1×, 2× dose groups, respectively. The reference item was dosed at an actual mean dose rate of 5.15 mg/kg. Dose rate calculations were based on the body weights determined prior to each study period.
(§10) Fifteen blood samples were drawn per animal after oral dosing (16 samples/animal after intravenous dosing) following a pre-determined schedule deemed suitable to describe the pharmacokinetic profile of the active substance contained in the test and reference item after single oral or intravenous dosing to cats.
(§11) Concentrations of the active substance molidustat and its major […] were analyzed by High Performance Liquid Chromatography/Tandem Mass Spectrometry in accordance with method 01469 (Krebber et al., Analytical method for the determination of BAY 85-3934 and its metabolite BAY 116-3348 in plasma by LC-MS/MS, BAG-CS report MR-15/109). The lower limit of quantitation was 5 μg/L for each substance.
(§12) Pharmacokinetic evaluation of plasma concentration data was based on the observed data using non-compartmental methods and comprised all PK-parameters to adequately describe the absorption, distribution and elimination phase of the active substance and its metabolite after oral or intravenous dosing with the test or reference item. For pharmacokinetic evaluation actual individual dose rates were used to account for the small differences between target and actual dose rates. All animals finished the in-life phase according to schedule.

[8] = Plasma pharmacokinetics after repeated once daily oral dosing of 2.5% (m/v) oily suspension; type: in vivo, cat; settings: for AUC / Cmax / Tmax / half-life: both sexes, plasma, po, 4.8 mg/kg, 4.8 mg molidustat sodium per kg once daily oral, geometric mean (CV)
Method: Following a single group design, eight healthy, young adult cats (4 neutered males, 4 spayed females) were included in the study. The animals were between 14 and 15.5 months old and weighed between 3.35 and 4.95 kg at start of the in-life phase.
The dose rate administered was 4.8 mg molidustat sodium per kg. Dosing was once daily on 6 consecutive days keeping an interval of 24 h. Dose rate calculation was based on the body weights determined on SD-1 for all administrations.
Thirty-one blood samples were drawn per animal following a pre-determined schedule deemed suitable to describe the pharmacokinetic profile of the active substance contained in the test item after repeated dosing to cats.
Concentrations of the active substance molidustat and its major metabolite in plasma were analyzed by High Performance Liquid Chromatography/Tandem Mass Spectrometry. The lower limit of quantitation was 5 μg/L for each substance.
Pharmacokinetic evaluation of plasma concentration data was based on the observed data using non-compartmental methods and comprised all PK-parameters to adequately describe the absorption, distribution and elimination phase of the active substance and its metabolite after repeated dosing with the test item.

[9] = Plasma pharmacokinetics after single intravenous bolus dose; type: in vivo, cat; settings: for Vd: read-out: volume of distribution
Method: as §7, §8, §9, §10, §11, §12

[10] = test system: cats with anemia associated with CKD; assay: Placebo-controlled field study, efficacy (HCT/PCV) in cats with anemia associated with CKD; type: in vivo, cat
Description: The objective of this study was to evaluate the safety and efficacy of molidustat to manage anemia associated with chronic kidney disease (CKD) in cats.
A total of 65 cats were screened at 11 US and 9 EU sites. Twenty-three (23) cats (13 cases from 9 sites in the US and 10 cases from 9 sites in the EU), with nearly equally distributed genders, mostly domestic shorthair breed, ranging in age from 4 to 17 years, and having initial body weights between 2 and 6 kilograms, were randomized and administered one of the two treatments. A total of 21 cats were included in the 28-day efficacy phase.

[11] = test system: Erythropoietin (EPO); assay: Erythropoietin concentrations after single oral administration (Example 2); type: in vivo, cat; settings: 6 hours after treatment, oral 3.0 mg/kg to fed or fasted cats
Method: as §6, §4, §5

[12] = both sexes, plasma, 5 mg/kg, single intravenous bolus 5 mg molidustat sodium per kg
[13] = female, plasma, iv, 5 mg/kg, females
[14] = male, plasma, iv, 5 mg/kg, males
[15] = SD 21, baseline-controlled analysis
[16] = SD 28, baseline-controlled analysis

With `[Na+].[O-]c1c(-n2ccnn2)cnn1-c1cc(N2CCOCC2)ncn1` [molidustat sodium, sodium 1-[6-(morpholin-4-yl)pyrimidin-4-yl]-4-(1H-1,2,3-triazol-1-yl)-1H-pyrazol-5-olate] the tolerability and safety ([1]; all study groups) was “very well tolerated and safe”, the “impact on body weight” value [1] was “no impact” and the “EPO concentrations compared to the placebo group” value [2] was “significantly differed”. For the same compound, the “mean hematocrit compared to placebo” value ([3]; 5 mg/kg once daily oral, at SD 14) was “significantly higher”, the “mean hematocrit compared to placebo” value ([3]; 10 mg/kg once daily oral, already at SD 7) was “significantly higher” and the “study day from which mean hematocrit was comparable to placebo group” value ([3]; after cessation of treatment) was “SD 70”. The “study day on which mean hematocrit returned to levels within reference range” value ([3]; after cessation of treatment) was “SD 56” and the “hematocrit relative to reference range” value ([3]; all treated animals, for up to 42 days after treatment) was “increase in hematocrit above the reference range”.
In the case of `O=c1c(-n2ccnn2)c[nH]n1-c1cc(N2CCOCC2)ncn1` [molidustat, 2-[6-(morpholin-4-yl)pyrimidin-4-yl]-4-(1H-1,2,3-triazol-1-yl)-2,3-dihydro-1H-pyrazol-3-one], the clinical tolerance [4] is reported as “clinically well tolerated without any clinical signs of intolerance”, the “treatment related adverse events” value ([5]; alone or with concomitant medications for CKD) is reported as “No treatment related adverse events” and the tolerability of treatment ([5]; once daily for 28 days at 5 mg/kg) is reported as “well tolerated”. For the same compound, the AUC ([6]; oral to fasted cats) was 8420 ng·h/mL, the AUC(0-t) ([6]; oral to fasted cats) was 8410 ng·h/mL and the Cmax ([6]; oral to fasted cats) was 3130 ng/mL. It also gave a Tmax ([6]; oral to fasted cats) of 0.67 h, an AUC ([6]; oral to fed cats) of 6300 ng·h/mL and an AUC(0-t) ([6]; oral to fed cats) of 6280 ng·h/mL. The Cmax ([6]; oral to fed cats) was 930 ng/mL, the Tmax ([6]; oral to fed cats) was 1 h and the “peak and extent of plasma exposure, fasted compared to fed prandial state” value ([6]; oral as sodium salt, 3.0 mg/kg) was “higher”. For the same compound, the Clb ([6]; oral to fasted cats) was 6 mL/min/kg, the MRTint ([6]; oral to fasted cats) was 3.7 h and the Vz ([6]; oral to fasted cats) was 3.74 L/kg. For the same compound, the t1//2 ([6]; oral to fasted cats) was 7.28 h, the Clb ([6]; oral to fed cats) was 8 mL/min/kg and the MRTint ([6]; oral to fed cats) was 7.0 h. For the same compound, the Vz ([6]; oral to fed cats) was 4.59 L/kg, the t1//2 ([6]; oral to fed cats) was 6.69 h and the AUC ([7]; 2.5 mg/kg single oral dose) was 5600 ng·h/mL. It also gave a Cmax ([7]; 2.5 mg/kg single oral dose) of 2700 ng/mL, a Tmax ([7]; 2.5 mg/kg single oral dose) of 0.5 h and a half-life ([7]; 2.5 mg/kg single oral dose) of 5 h. For the same compound, the AUC ([7]; 5.0 mg/kg single oral dose) was 12700 ng·h/mL, the Cmax ([7]; 5.0 mg/kg single oral dose) was 3830 ng/mL and the Tmax ([7]; 5.0 mg/kg single oral dose) was 1 h. The half-life ([7]; 5.0 mg/kg single oral dose) was 4.6 h, the AUC ([7]; 10 mg/kg single oral dose) was 23500 ng·h/mL and the Cmax ([7]; 10 mg/kg single oral dose) was 6730 ng/mL. The Tmax ([7]; 10 mg/kg single oral dose) was 1 h, the half-life ([7]; 10 mg/kg single oral dose) was 7.1 h and the AUC ([8]; first dose) was 13300 ng·h/mL. It also gave a Cmax ([8]; first dose) of 4460 ng/mL, a Tmax ([8]; first dose) of 0.64 h and a half-life ([8]; first dose) of 4.2 h. For the same compound, the AUC ([8]; last (6th) dose) was 13300 ng·h/mL, the Cmax ([8]; last (6th) dose) was 4100 ng/mL and the Tmax ([8]; last (6th) dose) was 0.94 h. For the same compound, the half-life ([8]; last (6th) dose) was 6.5 h, the accumulation index ([8]; repeated once daily oral dosing, 6 days) was 1.1 and the clearance [9, 12] was 5.17 mL/min/kg. For the same compound, the half-life ([9]; both sexes, plasma, 5 mg/kg, single intravenous bolus 5 mg molidustat sodium per kg, read-out: elimination half-life (converted)) was 5.91 h, the Vd [9, 12] was 2.69 L/kg and the clearance [9, 13] was 5.5 mL/min/kg. For the same compound, the Vd [9, 13] was 2.96 L/kg, the clearance [9, 14] was 5 mL/min/kg and the Vd [9, 14] was 2.36 L/kg. The mean plasma exposure ([9]; single intravenous bolus 5 mg molidustat sodium per kg (aqueous solution 2.0%)) was 16350 ng·h/mL, the “HCT and PCV levels throughout the continuation phase” value ([10]; 8 cats, 5 mg/kg or intermittent 2.5 mg/kg) was “maintained or increased” and the “PCV increase relative to baseline” value ([10]; SD 14, p=0.0167) was 2.21%. For the same compound, the “HCT increase relative to baseline” value ([10]; SD 14, p=0.0643) was 1.87%, the “HCT difference from average baseline” value [10, 15] was 3.91% and the “PCV difference from average baseline” value [10, 15] was 3.46%. The “HCT and PCV results compared to the CP group” value ([10]; SD 21, p-values<0.01) was “significantly greater”, the “PCV/HCT in comparison to SD 0” value ([10]; SD 21 and SD 28, once daily for 28 days at 5 mg/kg, anemic cats) was “significantly increased” and the “HCT difference from average baseline” value [10, 16] was 3.68%. The “PCV difference from average baseline” value [10, 16] was 3.89%, the “HCT and PCV increases compared to the CP group” value ([10]; SD 28, p<0.061) was “approached statistical significance” and the “Erythropoietin (EPO) concentrations” value [11] was “highly increased”.
